Patent EP1102769B1, “TRICYCLIC CARBOXAMIDES” (SmithKline Beecham plc, priority 1998, dated 2000)

Tested on: maximal (tonic hindlimb extension) electroshock seizures in male rats
Assay: Maximal electroshock seizure (MEST) threshold test, rat model
Type: in vivo, rats (Sprague Dawley)
Conditions: 2 mg/kg p.o., suspension in methyl cellulose, one hour post dosing, statistically significant, percentage increase in CC50 compared to control
Method: The maximal electroshock seizure (MEST) threshold test in rodents is particularly sensitive for detecting potential anticonvulsant properties ^1. In this model, anticonvulsant agents elevate the threshold to electrically-induced seizures whilst proconvulsants lower the seizure threshold.
Mice (naive male, Charles River, U.K. CD-1 strain, 25 - 30g) are randomly assigned to groups of 10 - 20 and dosed orally or intraperitoneally at a dose volume of 10 ml/kg with various doses of compound (0.3 - 300 mg/kg) or vehicle. Mice are then subjected at 30 or 60 min post dose to a single electroshock (0.1 sec, 50Hz, sine wave form) administered via corneal electrodes. The mean current and standard error required to induce a tonic seizure in 50% (CC50) of the mice in a particular treatment group is determined by the 'up and down' method of Dixon and Mood (1948)^2. Statistical comparisons between vehicle- and drug-treated groups are made using the method of Litchfield and Wilcoxon (1949)^3. […]
The threshold for maximal (tonic hindlimb extension) electroshock seizures in male rats (Sprague Dawley, 80 - 150g, 6 weeks old) was determined by a Hugo Sachs Electronik stimulator which delivered a constant current (0.3 sec duration; from 1-300mA in steps of 5-20mA). . […]
The percentage increase or decrease in CC50 for each group compared to the control is calculated. […]

SMILES: COc1ccc(C(=O)Nc2ccc3c(c2)C2CCCN2CC3)cc1C(F)(F)F (racemic) [Example 3, (+/-)N-(1,2,3,5,6,10b-hexahydropyrrolo[2,1-a]isoquinolin-9-yl)-4-methoxy-3-trifluoromethylbenzamide]
- increase in seizure threshold: 426%
